Results from publication PMC6001459 (The Febs Journal, 2018).

Target: T1, PpBBE1 (Physcomitrium patens, UniProt A0A2K1JP57, D396N)
T1 construct: gene PHYPA_015719; full-length precursor 501 residues; native signal peptide (predicted 1-30) removed; C-terminal octahistidine tag; secreted from Komagataella phaffii KM71H (pPICZalpha, PDI coexpressed); ca. 54 kDa; monomer; bicovalent FAD
Assay: X-ray crystal structure, […] A
Assay type: binding
Details: covalent; bicovalent via 8alpha to H111 and C6 to C172

T1 sequence (A0A2K1JP57 entry or part of it D396N): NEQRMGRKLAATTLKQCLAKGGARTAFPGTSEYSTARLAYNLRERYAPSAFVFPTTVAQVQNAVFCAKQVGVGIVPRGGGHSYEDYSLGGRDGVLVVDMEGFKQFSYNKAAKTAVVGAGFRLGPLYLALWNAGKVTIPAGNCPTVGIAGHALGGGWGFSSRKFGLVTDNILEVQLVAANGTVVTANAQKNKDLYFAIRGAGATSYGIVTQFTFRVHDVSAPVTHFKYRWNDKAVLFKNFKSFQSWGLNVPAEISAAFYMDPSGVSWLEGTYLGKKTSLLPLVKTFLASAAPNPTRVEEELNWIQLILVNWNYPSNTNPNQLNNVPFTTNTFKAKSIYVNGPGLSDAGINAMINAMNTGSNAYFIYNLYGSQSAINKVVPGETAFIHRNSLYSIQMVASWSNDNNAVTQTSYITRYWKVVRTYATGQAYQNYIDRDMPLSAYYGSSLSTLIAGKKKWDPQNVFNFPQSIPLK

## Cc1cc2nc3c(=O)[nH]c(=O)nc-3n(C[C@H](O)[C@H](O)[C@H](O)COP(=O)(O)OP(=O)(O)OC[C@H]3O[C@@H](n4cnc5c(N)ncnc54)[C@H](O)[C@@H]3O)c2cc1C [FAD]
  X-ray crystal structure, 2.6 A: confirmed the bicovalent linkage of the flavin cofactor
